The values that follow come from patent US20250263424A1, “KRAS INHIBITORS” (Bristol-Myers Squibb Company, priority 2022, published 2025).

Each structure is given as a SMILES string. Where two headings read alike, the source gives them in different places.

The target of this assay is Recombinant GMPPNP-loaded KRAS G12C (KRAS-G12C(ON), active form) (Homo sapiens, UniProt P01116, G12C). The assay can be described thus: KRAS G12C RAF Disruption Assay (HTRF). The note with it: GMPPNP-loaded KRAS G12C 5 nM, GST-RAF1 RBD 9 nM, read-out: KRASG12C RAF Disruption Assay (IC50). The assay is classed as biochemical. As to the method:
This is a functional assay that measures activity of compounds against […]., the active form of KRAS G12C. Recombinant GMPPNP-loaded KRAS G12C (5 nM) was treated with compound at room temperature for 20 minutes in assay buffer (50 mM Tris pH 7.5, 100 mM NaCl, 1 mM MgCl2, 1 mM DTT, 100 μg/ml BSA). Recombinant GST-RAF1 RBD (9 nM) was added, and the reaction mixture was incubated for 20 minutes. SA-Tb (0.25 nM) was added, and the reaction mixture was incubated for 3 hours. HTRF signal was measured (PerkinElmer Envision), the signal ratio (λem 520/λem 495) was calculated, and IC50 values were calculated from the dose-response curve.

Recombinant GMPPNP-loaded KRAS G12C (KRAS-G12C(ON), active form), sequence (P01116 1-188 isoform P01116-2 G12C): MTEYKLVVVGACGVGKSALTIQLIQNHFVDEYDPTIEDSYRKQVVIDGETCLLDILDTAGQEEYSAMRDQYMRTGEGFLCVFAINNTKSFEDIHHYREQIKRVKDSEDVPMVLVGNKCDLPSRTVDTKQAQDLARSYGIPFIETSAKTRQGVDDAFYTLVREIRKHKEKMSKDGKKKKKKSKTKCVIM

For `C#Cc1cccc2cccc(-c3ccc4c(N5CCN(C(=O)/C(F)=C/c6ccccn6)C[C@@H]5C)nc(OC[C@@]56CCCN5C[C@H](F)C6)nc4c3F)c12` [Example 88, (Z)-1-((S)-4-(7-(8-ethynylnaphthalen-1-yl)-8-fluoro-2-(((2R,7aS)-2-fluorotetrahydro-1H-pyrrolizin-7a(5H)-yl)methoxy)quinazolin-4-yl)-3-methylpiperazin-1-yl)-2-fluoro-3-(pyridin-2-yl)prop-2-en-1-one], under “values in nM”, the IC50 is 43 nM.
Turning to `CN1CCC[C@H]1COc1nc(N2CCN(C(=O)/C(F)=C/c3cnccn3)[C@@H](CC#N)C2)c2ccc(-c3cc(Cl)ccc3OC(F)(F)F)c(F)c2n1` [Example 68, 2-((S)-4-(7-(5-chloro-2-(trifluoromethoxy)phenyl)-8-fluoro-2-(((S)-1-methylpyrrolidin-2-yl)methoxy)quinazolin-4-yl)-1-((Z)-2-fluoro-3-(pyrazin-2-yl)acryloyl)piperazin-2-yl)acetonitrile], the IC50 (values in nM) turned out to be 20400 nM.
Still for that read-out and setting: then `C#Cc1cccc2cccc(-c3ccc4c(N5CCN(C(=O)/C(F)=C/c6cnccn6)[C@@H](CC#N)C5)nc(OC[C@@]56CCCN5C[C@H](F)C6)nc4c3F)c12` [Example 87, 2-((S)-4-(7-(8-ethynylnaphthalen-1-yl)-8-fluoro-2-(((2R,7aS)-2-fluorotetrahydro-1H-pyrrolizin-7a(5H)-yl)methoxy)quinazolin-4-yl)-1-((Z)-2-fluoro-3-(pyrazin-2-yl)acryloyl)piperazin-2-yl)acetonitrile], with 42 nM; and `Cc1ccc2[nH]ncc2c1-c1ccc2c(N3CCN(C(=O)/C(F)=C/c4cccnn4)[C@@H](CC#N)C3)nc(OC[C@@H]3CCCN3C)nc2c1F` [Example 53], with 70 nM; and `CN1CCC[C@H]1COc1nc(N2CCN(C(=O)/C(F)=C/c3ccccn3)[C@@H](CC#N)C2)c2ccc(-c3cccc4cccc(C#N)c34)c(F)c2n1` [Example 79, 8-(4-((S)-3-(cyanomethyl)-4-((Z)-2-fluoro-3-(pyridin-2-yl)acryloyl)piperazin-1-yl)-8-fluoro-2-(((S)-1-methylpyrrolidin-2-yl)methoxy)quinazolin-7-yl)-1-naphthonitrile], with 1600 nM.
In the case of `CN1CCC[C@H]1COc1nc(N2C[C@H]3CC[C@@H](C2)N3C(=O)/C(F)=C/c2ccccn2)c2cc(Cl)c(-c3cc(O)cc4ccccc34)c(F)c2n1` [Example 8, (Z)-1-((1R,5S)-3-(6-chloro-8-fluoro-7-(3-hydroxynaphthalen-1-yl)-2-(((S)-1-methylpyrrolidin-2-yl)methoxy)quinazolin-4-yl)-3,8-diazabicyclo[3.2.1]octan-8-yl)-2-fluoro-3-(pyridin-2-yl)prop-2-en-1-one], where the note is “values given in μM”, the IC50 was determined as 9600 nM.
Same read-out and setting: as for `Cc1cc(N)nc(-c2c(Cl)cc3c(N4C[C@H](C)N(C(=O)/C(F)=C/c5nccs5)C[C@H]4C)nc(OCC45CCCN4CC(F)C5)nc3c2F)c1C(F)(F)F` (stereo partly drawn) [Example 19, (Z)-1-((2S,5R)-4-((7M)-7-(6-amino-4-methyl-3-(trifluoromethyl)pyridin-2-yl)-6-chloro-8-fluoro-2-((2-fluorotetrahydro-1H-pyrrolizin-7a(5H)-yl)methoxy)quinazolin-4-yl)-2,5-dimethylpiperazin-1-yl)-2-fluoro-3-(thiazol-2-yl)prop-2-en-1-one], the figure is 3200 nM.
Regarding `C#Cc1cccc2cccc(-c3ccc4c(N5CCN(C(=O)/C(F)=C/c6nccs6)[C@@H](CC#N)C5)nc(OC[C@@]56CCCN5C[C@H](F)C6)nc4c3F)c12` [Example 86, 2-((S)-4-(7-(8-ethynylnaphthalen-1-yl)-8-fluoro-2-(((2R,7aS)-2-fluorotetrahydro-1H-pyrrolizin-7a(5H)-yl)methoxy)quinazolin-4-yl)-1-((Z)-2-fluoro-3-(thiazol-2-yl)acryloyl)piperazin-2-yl)acetonitrile], the IC50 (values in nM) was found to be 44 nM.
As for `CCc1cccc2cccc(-c3ccc4c(N5CCN(C(=O)/C(F)=C/c6nccs6)[C@@H](CC#N)C5)nc(OC[C@@H]5CCCN5C)nc4c3F)c12` [Example 60, 2-((S)-4-(7-(8-ethylnaphthalen-1-yl)-8-fluoro-2-(((S)-1-methylpyrrolidin-2-yl)methoxy)quinazolin-4-yl)-1-((Z)-2-fluoro-3-(thiazol-2-yl)acryloyl)piperazin-2-yl)acetonitrile], the IC50 (values in nM) is 170 nM.
As for `C#Cc1c(F)ccc2cc(O)cc(-c3c(Cl)cc4c(N5CC6CCC(C5)N6C(=O)/C(F)=C/c5ccccn5)nc(OC[C@@H]5CCCN5C)nc4c3F)c12` (single isomer, unassigned) [Example 20, Isomer 2], the IC50 (values given in μM) was above 100000 nM.
Turning to `CN1CCC[C@H]1COc1nc(N2CCN(C(=O)/C(F)=C/c3ccccn3)[C@@H](CC#N)C2)c2ccc(-c3cccc4cccc(Cl)c34)c(F)c2n1` [Example 37, 2-((S)-1-((Z)-2-fluoro-3-(pyridin-2-yl)acryloyl)-4-(8-fluoro-7-(8-chloronaphthalen-1-yl)-2-(((S)-1-methylpyrrolidin-2-yl)methoxy)quinazolin-4-yl)piperazin-2-yl)acetonitrile], where the note is “values in nM”, the IC50 amounted to 110 nM.
As for `C#Cc1cccc2cccc(-c3ccc4c(N(C)[C@@H]5CCN(C(=O)/C(F)=C/c6nccs6)C5)nc(OC[C@@]56CCCN5C[C@H](F)C6)nc4c3F)c12` [Example 82, (Z)-1-((R)-3-((7-(8-ethynylnaphthalen-1-yl)-8-fluoro-2-(((2R,7aS)-2-fluorotetrahydro-1H-pyrrolizin-7a(5H)-yl)methoxy)quinazolin-4-yl)(methyl)amino)pyrrolidin-1-yl)-2-fluoro-3-(thiazol-2-yl)prop-2-en-1-one], where the note is “values in nM”, the IC50 is 40 nM.
In the case of `Cc1cc(N)nc(-c2c(Cl)cc3c(N4CCC5C4CCN5C(=O)/C(F)=C/c4nccs4)nc(OC[C@]45CCCN4C[C@H](F)C5)nc3c2F)c1C(F)(F)F` (single isomer, unassigned) [Example 25, Isomer 2], the IC50 (values given in μM) came to 67600 nM.
As to `CN1CCC[C@H]1COc1nc(N2CCN(C(=O)/C(F)=C/c3nccs3)[C@@H](CC#N)C2)c2ccc(-c3c(O)cccc3F)c(F)c2n1` [Example 56, 2-((2S)-1-((Z)-2-fluoro-3-(thiazol-2-yl)acryloyl)-4-(8-fluoro-7-(2-fluoro-6-hydroxyphenyl)-2-(((S)-1-methylpyrrolidin-2-yl)methoxy)quinazolin-4-yl)piperazin-2-yl)acetonitrile], the IC50 (values in nM) worked out at 270 nM.
`Cc1cc(N)nc(-c2c(Cl)cc3c(N4CCC5C(C4)CN5C(=O)/C(F)=C/c4nccs4)nc(OC[C@]45CCCN4C[C@H](F)C5)nc3c2F)c1C(F)(F)F` (stereo partly drawn) [Example 16, (Z)-1-(3-((7M)-7-(6-amino-4-methyl-3-(trifluoromethyl)pyridin-2-yl)-6-chloro-8-fluoro-2-(((2R,7aR)-2-fluorotetrahydro-1H-pyrrolizin-7a(5H)-yl)methoxy)quinazolin-4-yl)-3,7-diazabicyclo[4.2.0]octan-7-yl)-2-fluoro-3-(thiazol-2-yl)prop-2-en-1-one]: the half-inhibitory concentration (IC50) (values given in μM) was 4200 nM.
Take `COc1ccc(Cl)cc1-c1ccc2c(N3CCN(C(=O)/C(F)=C/c4ccccn4)[C@@H](CC#N)C3)nc(OC[C@@H]3CCCN3C)nc2c1F` [Example 61, 2-((S)-4-(7-(5-chloro-2-methoxyphenyl)-8-fluoro-2-(((S)-1-methylpyrrolidin-2-yl)methoxy)quinazolin-4-yl)-1-((Z)-2-fluoro-3-(pyridin-2-yl)acryloyl)piperazin-2-yl)acetonitrile]: the half-inhibitory concentration (IC50) (values in nM) is 2800 nM.
As for `CN1CCC[C@H]1COc1nc(N2CCN(C(=O)/C(F)=C/c3ncccn3)CC2)c2ccc(-c3cc(O)cc4ccccc34)c(F)c2n1` [Example 32, (S,Z)-2-fluoro-1-(4-(8-fluoro-7-(3-hydroxynaphthalen-1-yl)-2-((1-methylpyrrolidin-2-yl)methoxy)quinazolin-4-yl)piperazin-1-yl)-3-(pyrimidin-2-yl)prop-2-en-1-one], under “values in nM”, the IC50 was determined as 290 nM.
Still for that read-out and setting: as for `N#CC[C@H]1CN(c2nc(OC[C@@]34CCCN3C[C@H](F)C4)nc3c(F)c(-c4cccc5cccc(Cl)c45)ccc23)CCN1C(=O)/C(F)=C/c1ncccn1` [Example 42, 2-((S)-4-(7-(8-chloronaphthalen-1-yl)-8-fluoro-2-(((2R,7aS)-2-fluorotetrahydro-1H-pyrrolizin-7a(5H)-yl)methoxy)quinazolin-4-yl)-1-((Z)-2-fluoro-3-(pyrimidin-2-yl)acryloyl)piperazin-2-yl)acetonitrile], the figure is 88 nM; as for `Cc1cc(N)nc(-c2c(Cl)cc3c(N4C[C@H]5CC[C@@H]4[C@@H]5NC(=O)/C(F)=C/c4ccccn4)nc(OC[C@]45CCCN4C[C@H](F)C5)nc3c2F)c1C(F)(F)F` [Example 45, (2Z)-N-[(1R,4R,7R)-2-[(7M)-2-{[(2R,7aR)-2-fluoro-hexahydro-1H-pyrrolizin-7a-yl]methoxy}-7-[6-amino-4-methyl-3-(trifluoromethyl)pyridin-2-yl]-6-chloro-8-fluoroquinazolin-4-yl]-2-azabicyclo[2.2.1]heptan-7-yl]-2-fluoro-3-(pyridin-2-yl)prop-2-enamide], 48 nM.
Turning to `Cc1cc(N)nc(-c2c(Cl)cc3c(N4CC5CC(C4)N5C(=O)/C(F)=C/c4nccs4)nc(OC[C@]45CCCN4C[C@H](F)C5)nc3c2F)c1C(F)(F)F` [Example 12, (Z)-1-(3-((7M)-7-(6-amino-4-methyl-3-(trifluoromethyl)pyridin-2-yl)-6-chloro-8-fluoro-2-(((2R,7aR)-2-fluorotetrahydro-1H-pyrrolizin-7a(5H)-yl)methoxy)quinazolin-4-yl)-3,6-diazabicyclo[3.1.1]heptan-6-yl)-2-fluoro-3-(thiazol-2-yl)prop-2-en-1-one], the IC50 (values given in μM) stood at 9200 nM.
